Columns and labels:
cellules tumorales A 549 = experiment: Test de prolifération (réduction MTT), A 549; type: cell-based; settings: A 549, MTT test, 72 h incubation
Description: (§1) Des cellules tumorales L 1210, A 549 et HT 29 en croissance exponentielle, à une densité de 5.10³/ml dans un milieu RPMI, sont incubées dans des plaques de microtitration contenant 96 puits, pendant 72 heures (37°C, 5 % CO₂, 95 % d'humidité relative) avec diffé-rentes concentrations de chacun des glycosides conformes à l'invention.
(§2) Les témoins consistent en cellules tumorales dans un milieu de culture frais.
(§3) Quatre puits sont préparés pour chaque concentration de glycoside et pour le témoin.
(§4) Après 65 heures, 50 µl de MTT (2,5 mg/ml dans du PBS) sont ajoutés.
(§5) Le MTT sera réduit, en présence de cellules vivantes, en un colorant formazan rouge insoluble.
(§6) Après 7 à 24 heures d'incubation supplémentaire, le surnageant est enlevé.
(§7) Le colorant formazan est solubilisé par l'addition de 100 µl de DMSO dans chaque puits, suivie d'une agitation douce. L'extinction est mesurée pour chaque puits, à 492 nm (photomètre Multiscan 340 cc, Fa. Flow).
(§8) Les résultats sont exprimés sous forme de relation de l'extinction après incubation avec les glycosides par rapport à l'extinction obtenue avec les té-moins. Le coefficient de variation est inférieur à 15 %. Les résultats sont représentés dans le tableau I, ci-après : […]

[1] = tested on: cellules tumorales L 1210; experiment: Test de prolifération (réduction MTT), L1210; type: cell-based; settings: 72 h incubation
Description: as §1, §2, §3, §4, §5, §6, §7, §8

cellules tumorales HT 29 = experiment: Test de prolifération (réduction MTT), HT 29; type: cell-based; settings: HT 29, MTT test, 72 h incubation
Description: as §1, §2, §3, §4, §5, §6, §7, §8

leucémie P 388 = settings: mouse, leucémie P 388, compared with daunorubicine 2a / doxorubicine 2b; cited from earlier work
sarcome S 180 = settings: mouse, sarcome S 180, compared with daunorubicine 2a / doxorubicine 2b; cited from earlier work
leucémie L1210 = settings: mouse, leucémie L1210, compared with daunorubicine 2a / doxorubicine 2b; cited from earlier work
[2] = animal models, compared with 2a and 2b; cited from earlier work

SMILES	IC₅₀ (cellules tumorales A 549)	IC₅₀ [1]	IC₅₀ (cellules tumorales HT 29)	activité in vivo (leucémie P 388)	activité in vivo (sarcome S 180)	activité in vivo (leucémie L1210)	cardiotoxicité [2]
COc1cccc2c1C(=O)c1c(O)c3c(c(O)c1C2=O)C[C@@](O)(C(C)=O)C[C@@H]3O[C@H]1C[C@H](CNC(=O)C(F)(F)F)C[C@H](C)O1 [15a, O-(N-TRIFLUOROACETYL AMINOMETHYL-3′ TETRADESOXY-2′, 3′, 4′,6′-α-L-LYXO-HEXOPYRANOSYL)-7 DAUNOMYCINONE]	0,43 µg/ml	0,25 µg/ml	0,67 µg/ml	–	–	–	–
COc1cccc2c1C(=O)c1c(O)c3c(c(O)c1C2=O)C[C@@](O)(C(C)=O)C[C@@H]3O[C@H]1C[C@H](N)C[C@H](C)O1 [compound 3]	–	–	–	aussi actifs	aussi actifs	aussi actifs	moins cardiotoxiques
COc1cccc2c1C(=O)c1c(O)c3c(c(O)c1C2=O)C[C@@](O)(C(=O)CO)C[C@@H]3O[C@H]1C[C@H](N)C[C@H](C)O1 [compound 4]	–	–	–	aussi actifs	aussi actifs	aussi actifs	moins cardiotoxiques
CC[C@@]1(O)C[C@H](O[C@H]2C[C@H](CNC(=O)C(F)(F)F)C[C@H](C)O2)c2c(O)c3c(c(O)c2[C@H]1O)C(=O)c1cccc(O)c1C3=O [16a, O-(N-TRIFLUOROACETYL AMINOMETHYL-3′ TETRADESOXY-2′,3′, 4′,6′-α-L-LYXO-HEXOPYRANOSYL)-7 β-RHODOMYCINONE]	0,14 µg/ml	0,14 µg/ml	0,48 µg/ml	–	–	–	–
